Assay results reported in ChEMBL document CHEMBL1671626, “In vitro profiling of ceftaroline against a collection of recent bacterial clinical isolates from across the United States” (2008).
Converted amounts (≈) assume the structure as drawn.

How the values were obtained:
Type in all cases: functional
Staphylococcus aureus [1] = assay: Antibacterial activity against methicillin-susceptible Staphylococcus aureus by CLSI M7-A7 broth microdilution method
Staphylococcus aureus [2] = assay: Antibacterial activity against methicillin-susceptible Staphylococcus aureus assessed as susceptible isolates by CLSI M7-A7 broth microdilution method
Staphylococcus aureus [3] = assay: Antibacterial activity against methicillin-susceptible Staphylococcus aureus assessed as resistant isolates by CLSI M7-A7 broth microdilution method
Staphylococcus aureus [4] = assay: Antibacterial activity against methicillin-resistant Staphylococcus aureus by CLSI M7-A7 broth microdilution method
Staphylococcus aureus [5] = assay: Antibacterial activity against methicillin-resistant Staphylococcus aureus assessed as susceptible isolates by CLSI M7-A7 broth microdilution method
Staphylococcus aureus [6] = assay: Antibacterial activity against methicillin-resistant Staphylococcus aureus assessed as resistant isolates by CLSI M7-A7 broth microdilution method
Staphylococcus aureus [7] = assay: Antibacterial activity against coagulase-negative and oxacillin-susceptible Staphylococcus aureus by CLSI M7-A7 broth microdilution method
Staphylococcus aureus [8] = assay: Antibacterial activity against coagulase-negative and oxacillin-susceptible Staphylococcus aureus assessed as susceptible isolates by CLSI M7-A7 broth microdilution method
Staphylococcus aureus [9] = assay: Antibacterial activity against coagulase-negative and oxacillin-susceptible Staphylococcus aureus assessed as resistant isolates by CLSI M7-A7 broth microdilution method
Staphylococcus aureus [10] = assay: Antibacterial activity against coagulase-negative and oxacillin-resistant Staphylococcus aureus by CLSI M7-A7 broth microdilution method
Staphylococcus aureus [11] = assay: Antibacterial activity against coagulase-negative and oxacillin-resistant Staphylococcus aureus assessed as susceptible isolates by CLSI M7-A7 broth microdilution method
Staphylococcus aureus [12] = assay: Antibacterial activity against coagulase-negative and oxacillin-resistant Staphylococcus aureus assessed as resistant isolates by CLSI M7-A7 broth microdilution method
Streptococcus pneumoniae [13] = assay: Antibacterial activity against penicillin-susceptible Streptococcus pneumoniae by CLSI M7-A7 broth microdilution method
Streptococcus pneumoniae [14] = assay: Antibacterial activity against penicillin-susceptible Streptococcus pneumoniae assessed as susceptible isolates by CLSI M7-A7 broth microdilution method
Streptococcus pneumoniae [15] = assay: Antibacterial activity against penicillin-susceptible Streptococcus pneumoniae assessed as resistant isolates by CLSI M7-A7 broth microdilution method
Streptococcus pneumoniae [16] = assay: Antibacterial activity against penicillin-resistant Streptococcus pneumoniae by CLSI M7-A7 broth microdilution method
Streptococcus pneumoniae [17] = assay: Antibacterial activity against penicillin-resistant Streptococcus pneumoniae assessed as susceptible isolates by CLSI M7-A7 broth microdilution method
Streptococcus pneumoniae [18] = assay: Antibacterial activity against penicillin-resistant Streptococcus pneumoniae assessed as resistant isolates by CLSI M7-A7 broth microdilution method
Streptococcus pyogenes [19] = assay: Antibacterial activity against erythromycin-susceptible Streptococcus pyogenes by CLSI M7-A7 broth microdilution method
Streptococcus pyogenes [20] = assay: Antibacterial activity against erythromycin-susceptible Streptococcus pyogenes assessed as susceptible isolates by CLSI M7-A7 broth microdilution method
Streptococcus pyogenes [21] = assay: Antibacterial activity against erythromycin-nonsusceptible Streptococcus pyogenes by CLSI M7-A7 broth microdilution method
Streptococcus pyogenes [22] = assay: Antibacterial activity against erythromycin-nonsusceptible Streptococcus pyogenes assessed as susceptible isolates by CLSI M7-A7 broth microdilution method
Streptococcus pyogenes [23] = assay: Antibacterial activity against erythromycin-nonsusceptible Streptococcus pyogenes assessed as resistant isolates by CLSI M7-A7 broth microdilution method
Streptococcus agalactiae [24] = assay: Antibacterial activity against erythromycin-susceptible Streptococcus agalactiae assessed as susceptible isolates by CLSI M7-A7 broth microdilution method
Streptococcus agalactiae [25] = assay: Antibacterial activity against erythromycin-susceptible Streptococcus agalactiae by CLSI M7-A7 broth microdilution method
Streptococcus agalactiae [26] = assay: Antibacterial activity against erythromycin-nonsusceptible Streptococcus agalactiae assessed as susceptible isolates by CLSI M7-A7 broth microdilution method
Streptococcus agalactiae [27] = assay: Antibacterial activity against erythromycin-nonsusceptible Streptococcus agalactiae by CLSI M7-A7 broth microdilution method
Streptococcus agalactiae [28] = assay: Antibacterial activity against erythromycin-nonsusceptible Streptococcus agalactiae assessed as resistant isolates by CLSI M7-A7 broth microdilution method
Streptococcus viridans [29] = assay: Antibacterial activity against penicillin-susceptible Streptococcus viridans by CLSI M7-A7 broth microdilution method
Streptococcus viridans [30] = assay: Antibacterial activity against penicillin-susceptible Streptococcus viridans assessed as susceptible isolates by CLSI M7-A7 broth microdilution method
Streptococcus viridans [31] = assay: Antibacterial activity against penicillin-susceptible Streptococcus viridans assessed as resistant isolates by CLSI M7-A7 broth microdilution method
Streptococcus viridans [32] = assay: Antibacterial activity against penicillin-nonsusceptible Streptococcus viridans by CLSI M7-A7 broth microdilution method
Streptococcus viridans [33] = assay: Antibacterial activity against penicillin-nonsusceptible Streptococcus viridans assessed as susceptible isolates by CLSI M7-A7 broth microdilution method
Streptococcus viridans [34] = assay: Antibacterial activity against penicillin-nonsusceptible Streptococcus viridans assessed as resistant isolates by CLSI M7-A7 broth microdilution method
Enterococcus faecalis [35] = assay: Antibacterial activity against vancomycin-susceptible Enterococcus faecalis by CLSI M7-A7 broth microdilution method
Enterococcus faecalis [36] = assay: Antibacterial activity against vancomycin-susceptible Enterococcus faecalis assessed as susceptible isolates by CLSI M7-A7 broth microdilution method
Enterococcus faecalis [37] = assay: Antibacterial activity against vancomycin-susceptible Enterococcus faecalis assessed as resistant isolates by CLSI M7-A7 broth microdilution method
Enterococcus faecalis [38] = assay: Antibacterial activity against vancomycin-resistant Enterococcus faecalis by CLSI M7-A7 broth microdilution method
Enterococcus faecalis [39] = assay: Antibacterial activity against vancomycin-resistant Enterococcus faecalis assessed as susceptible isolates by CLSI M7-A7 broth microdilution method
Enterococcus faecalis [40] = assay: Antibacterial activity against vancomycin-resistant Enterococcus faecalis assessed as resistant isolates by CLSI M7-A7 broth microdilution method
Enterococcus faecium [41] = assay: Antibacterial activity against vancomycin-resistant Enterococcus faecium by CLSI M7-A7 broth microdilution method
Enterococcus faecium [42] = assay: Antibacterial activity against vancomycin-resistant Enterococcus faecium assessed as susceptible isolates by CLSI M7-A7 broth microdilution method
Enterococcus faecium [43] = assay: Antibacterial activity against vancomycin-resistant Enterococcus faecium assessed as resistant isolates by CLSI M7-A7 broth microdilution method
Moraxella catarrhalis [44] = assay: Antibacterial activity against beta lactamase-positive Moraxella catarrhalis by CLSI M7-A7 broth microdilution method
Moraxella catarrhalis [45] = assay: Antibacterial activity against beta lactamase-positive Moraxella catarrhalis assessed as susceptible isolates by CLSI M7-A7 broth microdilution method
Moraxella catarrhalis [46] = assay: Antibacterial activity against beta lactamase-positive Moraxella catarrhalis assessed as resistant isolates by CLSI M7-A7 broth microdilution method
Pasteurella multocida [47] = assay: Antibacterial activity against Pasteurella multocida by CLSI M7-A7 broth microdilution method
Pasteurella multocida [48] = assay: Antibacterial activity against Pasteurella multocida assessed as susceptible isolates by CLSI M7-A7 broth microdilution method
Pasteurella multocida [49] = assay: Antibacterial activity against Pasteurella multocida assessed as resistant isolates by CLSI M7-A7 broth microdilution method

CC[C@H]1OC(=O)[C@H](C)[C@@H](O[C@H]2C[C@@](C)(OC)[C@@H](O)[C@H](C)O2)[C@H](C)[C@@H](O[C@@H]2O[C@H](C)C[C@H](N(C)C)[C@H]2O)[C@](C)(O)C[C@@H](C)C(=O)[C@H](C)[C@@H](O)[C@]1(C)O [ERYTHROMYCIN]
MIC50 (Staphylococcus aureus [1]): 0.5 µg/mL (≈ 0.681 µM) | MIC90 (Staphylococcus aureus [1]): > 8 µg/mL | Activity (Staphylococcus aureus [2]): 65.2% | Activity (Staphylococcus aureus [3]): 32.5% | MIC50 (Staphylococcus aureus [4]): > 8 µg/mL | Activity (Staphylococcus aureus [5]): 4.5% | Activity (Staphylococcus aureus [6]): 94.4% | MIC50 (Staphylococcus aureus [7]): 1 µg/mL (≈ 1.36 µM) | MIC90 (Staphylococcus aureus [7]): > 8 µg/mL | Activity (Staphylococcus aureus [8]): 49.8% | Activity (Staphylococcus aureus [9]): 49.3% | MIC50 (Staphylococcus aureus [10]): > 8 µg/mL | Activity (Staphylococcus aureus [11]): 18.4% | Activity (Staphylococcus aureus [12]): 81.3% | MIC50 (Streptococcus pneumoniae [13]): 0.03 µg/mL (≈ 0.0409 µM) | MIC90 (Streptococcus pneumoniae [13]): 0.5 µg/mL (≈ 0.681 µM) | Activity (Streptococcus pneumoniae [14]): 89.1% | Activity (Streptococcus pneumoniae [15]): 9.9% | MIC50 (Streptococcus pneumoniae [16]): 8 µg/mL (≈ 10.9 µM) | MIC90 (Streptococcus pneumoniae [16]): > 16 µg/mL | Activity (Streptococcus pneumoniae [17]): 28.4% | Activity (Streptococcus pneumoniae [18]): 71.6% | MIC50 (Streptococcus pyogenes [19]): 0.03 µg/mL (≈ 0.0409 µM) | MIC90 (Streptococcus pyogenes [19]): 0.06 µg/mL (≈ 0.0818 µM) | Activity (Streptococcus pyogenes [20]): 100% | MIC50 (Streptococcus pyogenes [21]): 8 µg/mL (≈ 10.9 µM) | MIC90 (Streptococcus pyogenes [21]): > 16 µg/mL | Activity (Streptococcus pyogenes [22]): 0% | Activity (Streptococcus pyogenes [23]): 80% | Activity (Streptococcus agalactiae [24]): 100% | MIC50 (Streptococcus agalactiae [25]): 0.03 µg/mL (≈ 0.0409 µM) | MIC90 (Streptococcus agalactiae [25]): 0.06 µg/mL (≈ 0.0818 µM) | Activity (Streptococcus agalactiae [26]): 0% | MIC50 (Streptococcus agalactiae [27]): 16 µg/mL (≈ 21.8 µM) | MIC90 (Streptococcus agalactiae [27]): > 16 µg/mL | Activity (Streptococcus agalactiae [28]): 92.9% | MIC50 (Streptococcus viridans [29]): 0.06 µg/mL (≈ 0.0818 µM) | MIC90 (Streptococcus viridans [29]): 4 µg/mL (≈ 5.45 µM) | Activity (Streptococcus viridans [30]): 58.6% | Activity (Streptococcus viridans [31]): 40.2% | MIC50 (Streptococcus viridans [32]): 2 µg/mL (≈ 2.73 µM) | MIC90 (Streptococcus viridans [32]): > 16 µg/mL | Activity (Streptococcus viridans [33]): 21.4% | Activity (Streptococcus viridans [34]): 71.4% | MIC50 (Enterococcus faecalis [35]): > 8 µg/mL | MIC90 (Enterococcus faecalis [35]): > 8 µg/mL | Activity (Enterococcus faecalis [36]): 10.2% | Activity (Enterococcus faecalis [37]): 59.9% | MIC (Enterococcus faecalis [38]): > 1 µg/mL | Activity (Enterococcus faecalis [39]): 0% | Activity (Enterococcus faecalis [40]): 96% | MIC50 (Enterococcus faecium [41]): > 8 µg/mL | MIC90 (Enterococcus faecium [41]): > 8 µg/mL | Activity (Enterococcus faecium [42]): 0% | Activity (Enterococcus faecium [43]): 92.3% | MIC (Moraxella catarrhalis [44]): ≤ 0.12 µg/mL | MIC50 (Moraxella catarrhalis [44]): ≤ 0.12 µg/mL | MIC90 (Moraxella catarrhalis [44]): ≤ 0.12 µg/mL | Activity (Moraxella catarrhalis [45]): 100% | Activity (Moraxella catarrhalis [46]): 0% | MIC50 (Pasteurella multocida [47]): 2 µg/mL (≈ 2.73 µM) | MIC90 (Pasteurella multocida [47]): 4 µg/mL (≈ 5.45 µM) | Activity (Pasteurella multocida [48]): 4.5% | Activity (Pasteurella multocida [49]): 77.3%
